Data set [1] concerns GPIIb/IIIa. Briefly: Flow cytometry of activated GPIIb/IIIa (PAC-1) on platelets. It counts as cell-based, human. To be noted: concentrations at which aspirin has no effect. As to the method: In order to analyze receptor expression on the surface of individual platelets and to minimize platelet activation caused by sample preparation procedures, no stirring or vortexing steps were used. The abundance of activated GPIIb/IIIa and P-selectin on the surface of platelets in the presence and absence of inhibitors was measured by flow cytometry. Platelet samples were first activated with agonists either collagen or ADP. When platelet aggregation reached 50% maximal light transmission the reaction was terminated by 10-fold dilution with physiologic saline. Resting platelets were used as control. In most of the experiments, platelets were preincubated with inhibitors for 10 min prior to the addition of agonists. Platelet samples were then incubated in the dark without stirring for 5 min at room temperature in the presence of saturating concentrations (10 μg/ml) of P-selectin (CD62P-APC). The activated GPIIb/IIIa platelet receptors were measured using PAC-1 monoclonal antibody at the same concentration as above. PAC-1 specifically recognizes an epitope on the high-affinity GPIIb/IIIa complex of activated platelets at or near the […]. Following incubation, samples were diluted in FACS Flow fluid and analyzed within 5 min using a BD FACSArray (BD Biosciences, Oxford, UK). Flow cytometry was performed on single stained platelet samples as described before^3. The instrument was set up to measure the size (forward scatter), granularity (side scatter) and cell fluorescence. A two-dimensional analysis gate of forward and side scatter was drawn in order to include single platelets and exclude platelet aggregates and microparticles. Antibody binding was measured by analyzing individual platelets for fluorescence. The mean fluorescence intensity was determined after correction for cell autofluorescence. For each sample, the fluorescence was analyzed using a logarithmic scale. Fluorescence histograms were obtained for 10,000 individual events. Data were analyzed using Cytometer RXP software and expressed as a percentage of control fluorescence in arbitrary units.
On the technique in general: In flow cytometry, cells or beads pass a laser one at a time.

For data set [2] the following is noted: female, human, 0.1 mM, pH 7.4.
In data set [3] the test system is rabbit liver carboxylesterase. It counts as in vitro ADME. To be noted: 0.1 mM.

For `CC(=O)Oc1ccccc1C(=O)O[C@H]1CO[C@H]2[C@@H]1OC[C@H]2OC(=O)c1ccccc1O` [Compound 2, Isosorbide-2-aspirinate-5-salicylate], in data set [1], the “constitutive platelet glyco-protein expression” value is listed as “dampens constitutive platelet glyco-protein expression”. For the same molecule, the figures for the “Drug disappearance” value in data set [2] and in data set [3] were 10 min and 5 min, respectively.

These data come from patent US8486974B2 (priority 2007, dated 2013).
